Assay results as given in patent publication US20240316038A1, “APOL1 INHIBITORS AND METHODS OF USE” (Maze Therapeutics, Inc., priority 2021, published 2024).

Experiments:
[1] = biological target: T1, APOL1 G2 (Homo sapiens, UniProt O14791, DEL388-389); test: Rescue of HEK293 cell death caused by overexpression of APOL1 (CellTiter-Glo luminescence), HEK293/T-REx APOL1 G2/clone #2; type: cell-based; conditions: reversal of cell death caused by overexpression of APOL1; geometric mean of at least 2 assay runs, † = single assay run (technical duplicate)
T1 construct: expressed in transfected cells; host or cells: HEK293 T-REx clonal lines: HEK T-REx/GCaMP6f/APOL1 G2 K6.3 in A1, HEK293/T-REx APOL1 G2/clone #2 in A2
T1 sequence (O14791 with tags, fused parts or gaps DEL388-389): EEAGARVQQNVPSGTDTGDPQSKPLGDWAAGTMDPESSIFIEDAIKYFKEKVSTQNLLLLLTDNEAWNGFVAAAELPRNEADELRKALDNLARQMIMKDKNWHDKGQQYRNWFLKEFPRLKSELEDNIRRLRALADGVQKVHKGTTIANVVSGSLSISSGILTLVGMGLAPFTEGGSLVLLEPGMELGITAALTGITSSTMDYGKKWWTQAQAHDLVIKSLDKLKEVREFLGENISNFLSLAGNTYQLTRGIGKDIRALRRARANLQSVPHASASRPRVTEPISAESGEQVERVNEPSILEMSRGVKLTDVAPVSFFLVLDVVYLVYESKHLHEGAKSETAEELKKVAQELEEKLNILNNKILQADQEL
How it was run: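 HEK293/T-REx APOL1 G2 clone #2 cells, 5,000/well, induced with 6 ng/mL doxycycline and exposed to compound (8-point, 3-fold dilutions, 0.5% DMSO) for 17 h at 37 °C. Viability by CellTiter-Glo luminescence; EC50 for reversal of APOL1-induced death from a four-parameter logistic fit, geometric mean of ≥2 runs.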

[2] = biological target: T1, APOL1 G2; test: APOL1 calcium transport inhibition assay (GCaMP6f calcium influx, FLIPR) in HEK T-REx/GCaMP6f/APOL1 G2 K6.3 cells; type: cell-based; conditions: inhibition of APOL1-mediated calcium influx; geometric mean of at least 2 assay runs, † = single assay run (technical duplicate)
How it was run: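 HEK293 cells stably expressing GCaMP6f, APOL1 G2 induced 6 h with doxycycline (20 ng/mL added), then washed into Ca2+-free Tyrode's buffer pH 7.4. Compounds (8-point dose response) preincubated 10 min at room temperature, then Ca2+ injected to 5 mM final and influx read on FLIPR. AC50 reported as geometric mean of runs.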

SMILES | AC50 [2] | EC50 [1]
N#Cc1cc(Cl)cc(CCN2CCN[C@H](COc3ccc(S(=O)(=O)CCO)cc3)C2)c1 [Compound 182, 3-chloro-5-{2-[(3S)-3-{[4-(2-hydroxyethane-sulfonyl)phenoxy]methyl}pi-perazin-1-yl]ethyl}benzo-nitrile] | 396 nM | 399 nM
CN=S(C)(=O)c1ccc(OC[C@@H]2CN(CCc3cccc(C#N)c3)C[C@H]2C)cc1 (stereo partly drawn) [Compound 169, 3-{2-[(3S,4S)-3-methyl-4-({4-[methyl(methyli-mino)oxo-λ^6-sulfanyl]phenoxy}methyl)pyrrolidin-1-yl]ethyl}benzonitrile] | 79.7 nM | 182 nM
C[C@@H]1CN(CC(O)c2cccc(C#N)c2)C[C@H]1COc1ccc(S(C)(=O)=O)cc1 (some centres unmarked) [Compound 126] | 704 nM | 560 nM
C[C@@H]1C[C@H](COc2ccc(S(C)(=O)=O)cc2)CN1CCc1cccc(Cl)c1 [Compound 153, (2R,4S)-1-[2-(3-chlorophenyl)-ethyl]-4-[(4-methanesulfon-ylphenoxy)meth-yl]-2-methyl-pyrrolidine] | 374 nM | 27.8 nM
CN(c1ccc(NCC(O)CNCCc2cccc(Cl)c2)cc1)S(C)(=O)=O (single isomer, unassigned) [Compound 106, (R) or (S)-N-(4-((3-((3-chlorophenethyl)a-mino)-2-hydroxypropyl)ami-no)phenyl)-N-methylmethanesulfon-amide] | 2790 nM | 6240 nM
C[C@@H]1CN(CC(O)c2cc(Cl)cc(C#N)c2)C[C@H]1COc1ccc(S(C)(=O)=O)cc1 (single isomer, unassigned) [Compound 122, 3-chloro-5-[(1R or 1S)-1-hydroxy-2-[(3S,4S)-3-[(4-methanesulfonylphenoxy)methyl]-4-methylpyrrolidin-1-yl]ethyl] benzonitrile] | 709 nM | 1340 nM
COC(CN1CCC[C@@H](COc2ccc(S(C)(=O)=O)cc2)C1)c1cccc(Cl)c1 (single isomer, unassigned) [Compound 25, (R)-1-((R)-2-(3-chlorophenyl)-2-methoxyethyl)-3-((4-(methylsulfonyl)phenoxy)methyl)piperidine or (R)-1-((S)-2-(3-chlorophenyl)-2-methoxyethyl)-3-((4-(methylsulfonyl)phenoxy)methyl)piperidine] | 469 nM | 1010 nM
CS(=O)(=O)c1ccc(OC[C@H]2CCCN(CC(O)c3cccc(Cl)c3)C2)cc1 (single isomer, unassigned) [Compound 19, (S) or (R)-1-(3-chlorophenyl)-2-((S)-3-((4-(methylsulfonyl)phenoxy)methyl)piperidin-1-yl)ethan-1-ol] | 480 nM | 374 nM
CC(CN1C[C@@H](COc2ccc(S(C)(=O)=O)cc2)[C@H](C)C1)c1cc(Cl)cc(C#N)c1 (stereo partly drawn) [Compound 146, 3-chloro-5-[1-[(3S,4S)-3-[(4-methanesulfon-ylphenoxy)meth-yl]-4-methyl-pyrrolidin-1-yl]-propan-2-yl]-benzonitrile] | 937 nM | 273 nM
C[C@]1(O)CN(CCc2cccc(Cl)c2)C[C@@H]1COc1ccc(S(C)(=O)=O)cc1 (single isomer, unassigned) [Compound 206, (3R,4R or 3S,4S)-1-[2-(3-chlorophenyl)ethyl]-4-[(4-methanesulfonylphenoxy)methyl]-3-methylpyrrolidin-3-ol] | > 25000 nM | > 30000 nM
CC(C)(CO)S(=O)(=O)c1ccc(OC[C@@H]2CN(CCc3cc(Cl)cc(C#N)c3)CCN2)cc1 [Compound 183, 3-chloro-5-{2-[(3S)-3-{[4-(1-hydroxy-2-methylpropane-2-sulfonyl)phenoxy]methyl}pi-perazin-1-yl]ethyl}benzo-nitrile] | 149 nM | 157 nM
COC(CN1CCC[C@@H](COc2ccc(S(C)(=O)=O)cc2)C1)c1cccc(Cl)c1 (single isomer, unassigned) [Compound 26, (R)-1-((S)-2-(3-chlorophenyl)-2-methoxyethyl)-3-((4-(methylsulfonyl)phenoxy)methyl)piperidine or (R)-1-((R)-2-(3-chlorophenyl)-2-methoxyethyl)-3-((4-(methylsulfonyl)phenoxy)methyl)piperidine] | 1540 nM | 2240 nM

Now from value to compound, other results behind:

AC50 [2] | SMILES | EC50 [1]
9300 nM | CC1CC(COc2ccc(S(C)(=O)=O)cc2)CN1CCc1cc(Cl)cc(C#N)c1 (single isomer, unassigned) [Compound 203, 3-chloro-5-(2-((2R,4S or 2S,4R or 2R,4R or 2S,4S)-2-methyl-4-((4-(methylsulfonyl)phenoxy)methyl)pyrrolidin-1-yl)ethyl)benzonitrile] | 3540 nM
409 nM | C[C@@H]1C[C@H](COc2ccc(S(=O)(=O)CCO)cc2)CN1CCc1cc(Cl)cc(C#N)c1 [Compound 165, 3-chloro-5-{2-[(2R,4S)-4-{[4-(2-hydroxyethanesul-fonyl)phenoxy]meth-yl}-2-methylpyrrolidin-1-yl]ethyl}benzonitrile] | 30.2 nM
709 nM | C[C@@H]1C[C@H](COc2ccc(S(C)(=O)=O)cc2)CN1CC(O)c1cc(Cl)cc(C#N)c1 (single isomer, unassigned) [Compound 114, 3-chloro-5-[(1S or 1R)-1-hydroxy-2-[(2R,4S)-4-[(4-methanesulfonylphenoxy)methyl]-2-methylpyrrolidin-1-yl]ethyl] benzonitrile] | 439 nM
570 nM | CS(=O)(=O)c1ccc(OC[C@@H](O)CN2CCCCC2Cc2cccc(Cl)c2)cc1 (single isomer, unassigned) [Compound 64, (2S)-1-((R) or (S)-2-(3-chlorobenzyl)piperidin-1-yl)-3-(4-(methylsulfonyl)phenoxy)propan-2-ol] | 1120 nM
256 nM | C[C@@H]1CN(CCc2cc(Cl)cc(C#N)c2)C[C@H]1COc1ccc(S(=O)(=O)C(C)(C)CO)cc1 [Compound 166, 3-chloro-5-{2-[(3S,4S)-3-{[4-(1-hydroxy-2-methylpropane-2-sulfonyl)phenoxy]methyl}-4-methylpyrrolidin-1-yl]ethyl}benzonitrile] | 17.9 nM
< 267 nM | CCN(CCc1cccc(Cl)c1)C[C@H](O)COc1ccc(N(C)S(C)(=O)=O)cc1 [Compound 60, (S)-N-(4-(3-((3-chlorophenethyl)(ethyl)amino)-2-hydroxypropoxy)phenyl)-N-methylmethanesulfonamide] | 306 nM
640 nM | COC(CN1CCC[C@H](COc2ccc(S(C)(=O)=O)cc2)C1)c1cccc(Cl)c1 (single isomer, unassigned) [Compound 23, (S)-1-((R)-2-(3-chlorophenyl)-2-methoxyethyl)-3-((4-(methylsulfonyl)phenoxy)methyl)piperidine or (S)-1-((S)-2-(3-chlorophenyl)-2-methoxyethyl)-3-((4-(methylsulfonyl)phenoxy)methyl)piperidine] | 677 nM
1080 nM | C[C@@H]1C[C@H](COc2ccc(S(C)(=O)=O)cc2)CN1CC(O)c1cccc(C#N)c1 (single isomer, unassigned) [Compound 117, 3-[(1S or 1R)-1-hydroxy-2-[(2R,4S)-4-[(4-methanesulfonylphenoxy)methyl]-2-methylpyrrolidin-1-yl]ethyl] benzonitrile] | 1240 nM
< 114 nM | CC1CC(COc2ccc(S(C)(=O)=O)cc2)CN1CCc1cccc(Cl)c1 (single isomer, unassigned) [Compound 54, rac-cis or trans-1-(3-chlorophenethyl)-2-methyl-4-((4-(methylsulfonyl)phenoxy)methyl)pyrrolidine] | > 30000 nM
99.8 nM | C[C@@H]1CN(CCc2cccc(C#N)c2)C[C@H]1COc1ccc(S(C)(=O)=O)cc1 [Compound 149, 3-{2-[(3S,4S)-3-[(4-methane-sulfonylphen-oxy)methyl]-4-methylpyrroli-din-1-yl]ethyl}-benzonitrile] | 272 nM
727 nM | CS(=O)(=O)c1ccc(OC[C@H]2CCN(CCc3cccc(Cl)c3)C2)cc1 [Compound 51, (S)-1-(3-chlorophenethyl)-3-((4-(methylsulfonyl)phenoxy)methyl)pyrrolidine] | 1490 nM
10800 nM | COC1CCN(CCc2cccc(Cl)c2)CC1COc1ccc(S(C)(=O)=O)cc1 (single isomer, unassigned) [Compound 33, rac-trans or cis-1-(3-chlorophenethyl)-4-methoxy-3-((4-(methylsulfonyl)phenoxy)methyl)piperidine] | > 8670 nM
1500 nM | CS(=O)(=O)c1ccc(OCC2CN(CCc3cccc(Cl)c3)CCC2O)cc1 (racemic) [Compound 27, rac-trans or cis-1-(3-chlorophenethyl)-3-((4-(methylsulfonyl)phenoxy)methyl)piperidin-4-ol] | 2130 nM
